The text below walks through data of PMC7643960 (PLoS ONE, 2020).

Data set [1] has as its system human carbonic anhydrase isoenzyme I. The arrangement: method as in PMID 15664816. Particulars: cited from earlier work.
Data set [2] has as its system human carbonic anhydrase isoenzyme II. More on the design: method as in PMID 15664816. As to conditions: cited from earlier work.
Data set [3] concerns human carbonic anhydrase isoenzyme IX. More on the design: method as in PMID 15664816. As to conditions: cited from earlier work.
Data set [4] is described as follows: Franz-type diffusion cell (FDC) permeation with HPLC analysis. As to conditions: any of the FDC experiments. Format: in vitro ADME, horse. An excerpt: Two different pharmaceutical formulations were provided by Skinomics GmbH, Halle, Germany, for in vitro permeation studies.
Skin from six horses was used for each FDC experiment. The skin from the lateral thorax was dissected at the Institute of Pathology, University of Veterinary Medicine Hannover, Foundation, Hannover, Germany, after euthanasia of the horses at the Clinic for Horses, University of Veterinary Medicine Hannover, Foundation, for reasons unrelated to the present study. Therefore, a prospective approval of the experiments by an animal research ethics committee was not required. Skin samples were stored at -20°C until use (maximum five months). Further skin sample preparation and diffusion experiments were performed as reported. Skin samples were incubated with test formulation 1 for 24 h and with test formulation 2 for 30 min and 24 h, respectively.
The following slices were 20-μm thick. […] A higher permeation rate of the compound was expected for 24-h experiments and, therefore, the 20-μm slices were stored and analyzed separately up to a depth of 310 μm. The slices were then pooled at 5 × 20 μm until a depth of a maximal 910 μm was reached. The cryostat blade was cleaned with tissues soaked in 80% methanol between each cut. The quantity of NVX-207 was determined by an analytic high-performance liquid chromatography (HPLC) method. […]

Data set [5] concerns different malignancies in five dogs. As to conditions: cited from earlier work.
For data set [6], the system named is normal human umbilical vein endothelial cells, fibroblasts and keratinocytes. As to conditions: cited from earlier work.

`C=C(C)[C@@H]1CC[C@]2(COS(N)(=O)=O)CC[C@]3(C)[C@H](CC[C@@H]4[C@@]5(C)CC[C@H](OS(N)(=O)=O)C(C)(C)[C@@H]5CC[C@]43C)[C@@H]12` [BBS, (3β)-Lup-20(29)-ene-3,28-diol, 3,28-disulfamate]: the “inhibition of carbonic anhydrase I” value in data set [1] was “efficient inhibitor”. The “inhibition of carbonic anhydrase II” value in data set [2] is “efficient inhibitor”. For the same compound, in data set [3], the “inhibition of carbonic anhydrase IX” value is recorded as “efficient inhibitor”.

On to `C=C(C)[C@@H]1CC[C@]2(C(=O)OCC(N)(CO)CO)CC[C@]3(C)[C@H](CC[C@@H]4[C@@]5(C)CC[C@H](OC(C)=O)C(C)(C)[C@@H]5CC[C@]43C)[C@@H]12` [NVX-207, 3-acetyl-betulinic acid-2-amino-3-hydroxy-2-hydroxymethyl-propanoate], for which, in data set [4], the “NVX-207 in the acceptor medium” value was “No NVX-207 was detected”. For the same compound, in data set [5], the “tolerability of intralesional treatment” value is “well tolerated” and the “tumor response to intralesional treatment” value is on record as “clinically beneficial tumor response was observed”. Also, the “impact on in vitro survival of normal cells” value in data set [6] is listed as “little impact”.
